Each block holds one molecule with its values, some of them ahead of it.
Columns and labels:
[1] = biological target: T1, human LTA4 hydrolase (Homo sapiens, UniProt P09960); assay: LTA4H Enzyme assay (peptidase, Arg-AMC cleavage); assay type: biochemical; details: LTA4H enzyme 1 nM, Arg-AMC substrate 50 μM, room temperature 1 h, fluorescence 380/460 nm
T1 sequence (P09960 1-611): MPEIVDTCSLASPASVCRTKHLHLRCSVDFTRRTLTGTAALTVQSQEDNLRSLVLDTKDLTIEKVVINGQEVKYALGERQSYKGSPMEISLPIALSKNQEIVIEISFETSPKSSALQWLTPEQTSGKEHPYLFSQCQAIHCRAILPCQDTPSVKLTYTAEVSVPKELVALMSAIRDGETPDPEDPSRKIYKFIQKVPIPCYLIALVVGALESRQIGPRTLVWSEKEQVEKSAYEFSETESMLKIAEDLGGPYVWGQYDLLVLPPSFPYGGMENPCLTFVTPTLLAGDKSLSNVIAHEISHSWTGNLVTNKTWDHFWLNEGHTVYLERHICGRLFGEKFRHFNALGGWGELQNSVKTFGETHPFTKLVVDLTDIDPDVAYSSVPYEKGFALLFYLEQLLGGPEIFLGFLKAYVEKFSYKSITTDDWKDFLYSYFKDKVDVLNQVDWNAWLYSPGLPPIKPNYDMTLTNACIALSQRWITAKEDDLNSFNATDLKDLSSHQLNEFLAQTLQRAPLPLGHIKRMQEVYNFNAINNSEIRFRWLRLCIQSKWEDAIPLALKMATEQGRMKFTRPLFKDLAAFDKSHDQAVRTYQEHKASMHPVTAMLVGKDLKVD
Outline: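 Human LTA4H (1 nM final) incubated with compound and Arg-AMC (50 μM final) in 50 mM Tris-HCl pH 7.5, 100 mM KCl, 0.5% BSA, 1 h at room temperature. Product read as AMC fluorescence (ex 380/em 460 nm); IC50 reported.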

[2] = system: LTB4 synthesis in human whole blood; assay: human whole blood (HWB) assay, inhibition of LTB4 production; assay type: cell-based; details: heparinized human whole blood, calcimycin 20 μM stimulation, plasma LTB4
Outline: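 Plasma LTB4, quantified by HTRF immunoassay, is the read-out after calcimycin challenge (20 μM final, 30 min, 37 °C) of heparinized whole blood that had been pretreated with compound for 15 min at 37 °C; values given as IC50.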

Structure (SMILES): CN(Cc1nc2cc(Oc3ccc(-c4ccn[nH]4)cc3)ccc2[nH]1)C[C@@H]1CCCO1 [Example 76, Methyl-{5-[4-(2H-pyrazol-3-yl)-phenoxy]-1H-benzoimidazol-2-ylmethyl}-[(S)-1-(tetrahydro-furan-2-yl)methyl]-amine]
IC50 [1]: 0.2 nM
IC50 [2]: 87 nM

Structure (SMILES): CC(=O)N[C@@H]1C[C@H]2CC[C@@H](C1)N2CC1Cc2ccc(Oc3ccc(-c4ccn[nH]4)cc3)cc2O1 (stereo partly drawn) [Example 142, N-((exo)-8-{6-[4-(2H-Pyrazol-3-yl)-phenoxy]-2,3-dihydro-benzofuran-2-ylmethyl}-8-aza-bicyclo[3.2.1]oct-3-yl)-acetamide]
IC50 [1]: 0.25 nM
IC50 [2]: 210 nM

Structure (SMILES): NC(=O)[C@@H](NCc1ccc2cc(Oc3ccc(-c4ccn[nH]4)cn3)ccc2n1)c1ccccc1 [Example 51, (S)-2-Phenyl-2-({6-[5-(2H-pyrazol-3-yl)-pyridin-2-yloxy]-quinolin-2-ylmethyl}-amino)-acetamide]
IC50 [1]: 8.1 nM
IC50 [2]: 2200 nM

Structure (SMILES): CN(Cc1nc2cc(Oc3ccc(-c4ccn[nH]4)cc3)ccc2[nH]1)CC1CCCO1 (centres unmarked) [Example 85, Methyl-{5-[4-(2H-pyrazol-3-yl)-phenoxy]-1H-benzoimidazol-2-ylmethyl}-(tetrahydro-furan-2-ylmethyl)-amine]
IC50 [1]: 0.24 nM
IC50 [2]: 120 nM

Structure (SMILES): CCN(Cc1nc2cc(Oc3ccc(-c4ccn[nH]4)cc3)ccc2[nH]1)[C@@H](C)COC [Example 86, Ethyl-((S)-2-methoxy-1-methyl-ethyl)-{5-[4-(2H-pyrazol-3-yl)-phenoxy]-1H-benzoimidazol-2-ylmethyl}-amine]
IC50 [1]: 0.056 nM
IC50 [2]: 120 nM

Structure (SMILES): CC(C)(O)CNC(=O)[C@H]1[C@@H]2CN(Cc3ccc4cc(Oc5ccc(-c6ccn[nH]6)cn5)ccc4n3)C[C@@H]21 [Example 40, (1α,5α,6α)-3-{6-[5-(2H-Pyrazol-3-yl)-pyridin-2-yloxy]-quinolin-2-ylmethyl}-3-aza-bicyclo[3.1.0]hexane-6-carboxylic acid (2-hydroxy-2-methyl-propyl)-amide]
IC50 [1]: 0.47 nM
IC50 [2]: 300 nM

Structure (SMILES): C[C@@H]1CN(Cc2nc3cc(Oc4ccc(-c5ccn[nH]5)cc4)ccc3[nH]2)C[C@H](C)O1 [Example 53, 2-((2R,6S)-2,6-Dimethyl-morpholin-4-ylmethyl)-5-[4-(2H-pyrazol-3-yl)-phenoxy]-1H-benzoimidazole]
IC50 [1]: 0.096 nM
IC50 [2]: 67 nM

Structure (SMILES): COCC(=O)N1CCN(Cc2ccc3cc(Oc4ccc(-c5ccn[nH]5)cn4)ccc3c2)CC1 [Example 1, 2-Methoxy-1-(4-{6-[5-(2H-pyrazol-3-yl)-pyridin-2-yloxy]-naphthalen-2-ylmethyl}-piperazin-1-yl)-ethanone]
IC50 [1]: 0.63 nM
IC50 [2]: 180 nM

Structure (SMILES): CC(=O)N1CC2CCC(C1)N2Cc1ccc2cc(Oc3ccc(-c4ccn[nH]4)cc3)ccc2n1 [Example 245, 1-(8-{6-[4-(2H-Pyrazol-3-yl)-phenoxy]-quinolin-2-ylmethyl}-3,8-diaza-bicyclo[3.2.1]oct-3-yl)-ethanone]
IC50 [1]: 0.18 nM
IC50 [2]: 170 nM

Structure (SMILES): c1cc(-c2ccc(Cc3ccc4nc(CN5CCOCC5)[nH]c4c3)cc2)[nH]n1 [Example 60, 2-Morpholin-4-ylmethyl-6-[4-(2H-pyrazol-3-yl)-benzyl]-1H-benzoimidazole]
IC50 [1]: 0.23 nM
IC50 [2]: 140 nM

Structure (SMILES): O=C(CO)N1CCCC12CCN(Cc1ccc3cc(Oc4ccc(-c5ccn[nH]5)cn4)ccc3n1)CC2 [Example 50, 2-Hydroxy-1-(8-{6-[5-(2H-pyrazol-3-yl)-pyridin-2-yloxy]-quinolin-2-ylmethyl}-1,8-diaza-spiro[4.5]dec-1-yl)-ethanone]
IC50 [1]: 2.8 nM
IC50 [2]: 1100 nM

Structure (SMILES): CC(=O)NC1CCN(Cc2ccc3cc(Oc4ccc(-c5ccn[nH]5)cn4)ccc3c2)CC1 [Example 6, N-(1-{6-[5-(2H-Pyrazol-3-yl)-pyridin-2-yloxy]-naphthalen-2-ylmethyl}-piperidin-4-yl)-acetamide]
IC50 [1]: 0.37 nM
IC50 [2]: 210 nM

Structure (SMILES): c1cc(-c2ccc(Oc3ccc4cc(CN5CCCC5)ccc4c3)nc2)[nH]n1 [Example 3, 5-(2H-Pyrazol-3-yl)-2-(6-pyrrolidin-1-ylmethyl-naphthalen-2-yloxy)-pyridine]
IC50 [1]: 0.34 nM
IC50 [2]: 120 nM

Structure (SMILES): Cc1noc(C2CCN(Cc3nc4cc(Oc5ccc(-c6ccn[nH]6)cc5)ccc4[nH]3)CC2)n1 [Example 65, 2-[4-(3-Methyl-[1,2,4]oxadiazol-5-yl)-piperidin-1-ylmethyl]-5-[4-(2H-pyrazol-3-yl)-phenoxy]-1H-benzoimidazole]
IC50 [1]: 0.15 nM
IC50 [2]: 180 nM

The next lines start with the values.

IC50 [1]: 2 nM
IC50 [2]: 280 nM
Structure (SMILES): c1cc(-c2ccc(Oc3ccc4c(cnn4CCN4CCOCC4)c3)nc2)[nH]n1 [Example 111, 1-(2-Morpholin-4-yl-ethyl)-5-[5-(2H-pyrazol-3-yl)-pyridin-2-yloxy]-1H-indazole]

IC50 [1]: 0.74 nM
IC50 [2]: 150 nM
Structure (SMILES): c1cc(-c2ccc(Oc3ccc4nc(CN5C[C@@H]6C[C@H]5CO6)ccc4c3)nc2)[nH]n1 [Example 178, 2-[(1S,4S)-1-(2-Oxa-5-aza-bicyclo[2.2.1]hept-5-yl)methyl]-6-[5-(2H-pyrazol-3-yl)-pyridin-2-yloxy]-quinoline]

IC50 [1]: 0.45 nM
IC50 [2]: 150 nM
Structure (SMILES): c1cc(-c2ccc(Oc3ccc4c(c3)OC(CNCC3CCOCC3)C4)cc2)[nH]n1 (centres unmarked) [Example 185, {6-[4-(2H-Pyrazol-3-yl)-phenoxy]-2,3-dihydro-benzofuran-2-ylmethyl}-(tetrahydro-pyran-4-ylmethyl)-amine]

IC50 [1]: 0.42 nM
IC50 [2]: 170 nM
Structure (SMILES): c1cc(-c2ccc(Oc3ccc4[nH]c(CNC[C@@H]5CCCO5)nc4c3)cc2)[nH]n1 [Example 100, {5-[4-(2H-Pyrazol-3-yl)-phenoxy]-1H-benzoimidazol-2-ylmethyl}-[(S)-1-(tetrahydro-furan-2-yl)methyl]-amine]

IC50 [1]: 0.61 nM
IC50 [2]: 250 nM
Structure (SMILES): CC(=O)NC1CC2CCC(C1)N2Cc1ccc2cc(Oc3ccc(-c4cc[nH]n4)cn3)ccc2n1 (stereo not drawn) [Example 238, N-((endo)-8-{6-[5-(1H-Pyrazol-3-yl)-pyridin-2-yloxy]-quinolin-2-ylmethyl}-8-aza-bicyclo[3.2.1]oct-3-yl)-acetamide]

IC50 [1]: 0.24 nM
IC50 [2]: 170 nM
Structure (SMILES): CN(Cc1nc2cc(Oc3ccc(-c4ccn[nH]4)cc3)ccc2[nH]1)C(=O)C1CC1 [Example 233, Cyclopropanecarboxylic acid methyl-{5-[4-(2H-pyrazol-3-yl)-phenoxy]-1H-benzoimidazol-2-ylmethyl}-amide]

IC50 [1]: 0.22 nM
IC50 [2]: 110 nM
Structure (SMILES): CC(=O)NC1CCN(CC2Cc3ccc(Oc4ccc(-c5ccn[nH]5)cc4)cc3O2)CC1 (centres unmarked) [Example 219, N-(1-[6-[4-(2H-Pyrazol-3-yl)-phenoxy]-2,3-dihydro-benzofuran-2-ylmethyl]-piperidin-4-yl)-acetamide]

IC50 [1]: 0.18 nM
IC50 [2]: 95 nM
Structure (SMILES): CCN(CCOC)Cc1nc2cc(Oc3ccc(-c4ccn[nH]4)cc3)ccc2[nH]1 [Example 155, Ethyl-(2-methoxy-ethyl)-{5-[4-(2H-pyrazol-3-yl)-phenoxy]-1H-benzoimidazol-2-ylmethyl}-amine]

IC50 [1]: 0.25 nM
IC50 [2]: 120 nM
Structure (SMILES): CN(C)C(=O)CC1CCN(CC2Cc3ccc(Oc4ccc(-c5ccn[nH]5)cc4)cc3O2)CC1 (centres unmarked) [Example 169, N,N-Dimethyl-2-(1-{6-[4-(2H-pyrazol-3-yl)-phenoxy]-2,3-dihydro-benzofuran-2-ylmethyl}-piperidin-4-yl)-acetamide]

IC50 [1]: 0.55 nM
IC50 [2]: 190 nM
Structure (SMILES): c1cc(-c2ccc(Oc3ccc4[nH]c(CNC[C@H]5CCCO5)nc4c3)cc2)[nH]n1 [Example 101, {5-[4-(2H-Pyrazol-3-yl)-phenoxy]-1H-benzoimidazol-2-ylmethyl}-[(R)-1-(tetrahydro-furan-2-yl)methyl]-amine]

IC50 [1]: 0.17 nM
IC50 [2]: 150 nM
Structure (SMILES): COCCN(Cc1nc2cc(Oc3ccc(-c4ccn[nH]4)cc3)ccc2[nH]1)C(C)C [Example 183, Isopropyl-(2-methoxy-ethyl)-{5-[4-(2H-pyrazol-3-yl)-phenoxy]-1H-benzoimidazol-2-ylmethyl}-amine]

IC50 [1]: 0.39 nM
IC50 [2]: 200 nM
Structure (SMILES): O=C(CO)N1C[C@@H]2C[C@H]1CN2Cc1ccc2cc(Oc3ccc(-c4ccn[nH]4)cn3)ccc2n1 [Example 139, 2-Hydroxy-1-((1S,4S)-5-{6-[5-(2H-pyrazol-3-yl)-pyridin-2-yloxy]-quinolin-2-ylmethyl}-2,5-diaza-bicyclo[2.2.1]hept-2-yl)-ethanone]

IC50 [1]: 0.2 nM
IC50 [2]: 150 nM
Structure (SMILES): CCCN(CCOC)Cc1nc2cc(Oc3ccc(-c4ccn[nH]4)cc3)ccc2[nH]1 [Example 184, (2-Methoxy-ethyl)-propyl-{5-[4-(2H-pyrazol-3-yl)-phenoxy]-1H-benzoimidazol-2-ylmethyl}-amine]

IC50 [1]: 0.54 nM
IC50 [2]: 230 nM
Structure (SMILES): CC(=O)N1CCN(CCc2ccc3cc(Oc4ccc(-c5ccn[nH]5)cn4)ccc3n2)CC1 [Example 108, 1-[4-(2-{6-[5-(2H-pyrazol-3-yl)-pyridin-2-yloxy]-quinolin-2-yl}-ethyl)-piperazin-1-yl]-ethanone]
